Reference: PubChem BioAssay (NCI)
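Results reflect a 48-hour exposure of cells in 96-well plates to compound at five concentrations. The concentration for full growth arrest is given as TGI.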

How the values were obtained:
Test in all cases: growth of human tumour cells (NCI), 48 h
[1] = tested on: HCC-2998 colon
[2] = tested on: NCI-H460 lung
[3] = tested on: OVCAR-3 ovarian
[4] = tested on: NCI-H522 lung
[5] = tested on: RXF 393 renal
[6] = tested on: SF-539 CNS
[7] = tested on: MOLT-4 leukemia
[8] = tested on: SW-620 colon
[9] = tested on: SK-MEL-2 melanoma
[10] = tested on: TK-10 renal

SMILES	TGI [1] [µM]	TGI [2] [µM]	TGI [3] [µM]	TGI [4] [µM]	TGI [5] [µM]	TGI [6] [µM]	TGI [7] [µM]	TGI [8] [µM]	TGI [9] [µM]	TGI [10] [µM]
C=CC(C)(C)c1cc([C@@H]2COc3cc(O)ccc3C2=O)c(O)c(O)c1OC	> 100	> 100	29.3	38.1	21.1	57.9	> 100	> 100	45.8	> 100
O=C(/C=C(\O)c1ccccc1)/C(=C/C(=O)c1ccccc1)NN=C(c1ccccc1)c1ccccc1	58.7	72.8	67.1	63	> 100	> 100	52.5	> 100	84.2	97.6
COc1ccc2c(c1)CC1Cc3ccccc3CCN1C2 (stereo not given)	> 100	> 100	> 100	63.6	> 100	> 100	> 100	> 100	> 100	> 100
CC(C)(C)c1cc(C(=O)/C=C/c2ccn[nH]2)cc(C(C)(C)C)c1O	3.37	8.6	7.39	2.73	3.19	9.07	10.1	6.27	3.43	2.92
CNC(=S)N/N=C(\C)c1nc2ncccc2[nH]1	> 100	> 100	75.5	> 73.3	> 100	> 100	> 100	> 100	> 100	> 96.1
CC(NNC(=O)c1ccncc1)c1ccc(Cl)c(Cl)c1 (stereo not given)	> 100	> 100	> 100	> 100	> 100	> 100	> 100	> 100	> 100	> 100
CN(CCc1ccc(Cl)c(Cl)c1)CCN(C)CCN1CCCC1	4.5	25.7	70.4	20.9	26.6	17.5	20.1	31.2	10	26.7
O/N=C1/C2CC3CC1(c1ccccc1)CC(/C3=N/O)/C2=N\O (stereo not given)	> 100	> 100	> 100	> 100	> 100	> 100	> 100	> 100	> 100	> 100
c1csc(-c2csc(-c3ccsc3)c2)c1	> 100	> 100	> 100	> 100	> 100	98.6	> 100	> 100	> 100	> 100
COc1ccc2c(-c3ccc(OCCN(C)C)cc3)c(Oc3ccc(Cl)cc3)c(=O)oc2c1	9.63	> 42.4	21	12.1	12.4	> 30.8	6.09	> 46.8	19.1	26.4
COc1cc([C@H]2Oc3c(OC)cc(CCCO)cc3[C@@H]2CO)ccc1O	> 100	> 100	> 100	> 100	> 100	> 100	> 100	> 100	> 100	> 100
CC(=O)CC(C)(C)NC(=O)[C@@]1(O)CC[C@H]2[C@@H]3CCC4=CC(=O)CC[C@@H]4[C@H]3CC[C@@]21C	> 100	> 100	> 100	> 100	> 100	> 100	> 100	> 100	> 100	> 100
Cc1ccc(S(=O)(=O)c2ccc([N+](=O)[O-])o2)cc1	13.1	33.4	3.71	0.578	3.33	3.34	> 100	1.73	28.7	3.04
CN(/N=N/c1nc[nH]c1C(N)=O)C1CCCCC1	> 100	> 100	> 100	> 100	> 100	> 100	> 100	> 100	> 100	> 100
CN(C)Cc1cc(C(=O)/C=C/c2cccc(Cl)c2)cc(CN(C)C)c1O	23.8	11.4	9.21	33	23.6	19.5	14.1	17.5	26	22
